The test system of assay [1] is experimental hyperlipemia induced by Triton (rats). The assay is described as follows: Activity on the experimental hyperlipemia induced by Triton. The assay is classed as in vivo. The conditions noted are these: rat, Triton 300 mg/kg i.p., 18 hours. On the procedure:
EXAMPLE XV-ACTIVITY ON THE EXPERIMENTAL HYPERLIPEMIA INDUCED BY TRITON
Groups of 10 fasted rats weighing about 200 g are treated with an intraperitoneal injection of Triton at a dose of 300 mg/kg; immediately afterwards, the products are administered orally.
After 18 hours, the cholesterol and triglycerides are determined.

The test system of assay [2] is rats rendered hyperlipemic with olive oil. The assay is described as follows: Hypolipemic activity in rats rendered hyperlipemic with olive oil. The format is in vivo. The conditions noted are these: rat, atherogenic diet enriched with olive oil. On the procedure: EXAMPLE XVI-HYPOLIPEMIC ACTIVITY IN RATS RENDERED HYPERLIPEMIC WITH OLIVE OIL
A group of rats is placed on an atherogenic hyperlipemic diet enriched with olive oil and the animals are then treated per os. The cholesterol and triglycerides are then determined as in the previous example. […]

Assay [3] concerns the target T1, 3-hydroxy-3-methylglutaryl coenzyme A reductase (Rattus norvegicus, UniProt P51639).
T1 sequence (P51639 1-887): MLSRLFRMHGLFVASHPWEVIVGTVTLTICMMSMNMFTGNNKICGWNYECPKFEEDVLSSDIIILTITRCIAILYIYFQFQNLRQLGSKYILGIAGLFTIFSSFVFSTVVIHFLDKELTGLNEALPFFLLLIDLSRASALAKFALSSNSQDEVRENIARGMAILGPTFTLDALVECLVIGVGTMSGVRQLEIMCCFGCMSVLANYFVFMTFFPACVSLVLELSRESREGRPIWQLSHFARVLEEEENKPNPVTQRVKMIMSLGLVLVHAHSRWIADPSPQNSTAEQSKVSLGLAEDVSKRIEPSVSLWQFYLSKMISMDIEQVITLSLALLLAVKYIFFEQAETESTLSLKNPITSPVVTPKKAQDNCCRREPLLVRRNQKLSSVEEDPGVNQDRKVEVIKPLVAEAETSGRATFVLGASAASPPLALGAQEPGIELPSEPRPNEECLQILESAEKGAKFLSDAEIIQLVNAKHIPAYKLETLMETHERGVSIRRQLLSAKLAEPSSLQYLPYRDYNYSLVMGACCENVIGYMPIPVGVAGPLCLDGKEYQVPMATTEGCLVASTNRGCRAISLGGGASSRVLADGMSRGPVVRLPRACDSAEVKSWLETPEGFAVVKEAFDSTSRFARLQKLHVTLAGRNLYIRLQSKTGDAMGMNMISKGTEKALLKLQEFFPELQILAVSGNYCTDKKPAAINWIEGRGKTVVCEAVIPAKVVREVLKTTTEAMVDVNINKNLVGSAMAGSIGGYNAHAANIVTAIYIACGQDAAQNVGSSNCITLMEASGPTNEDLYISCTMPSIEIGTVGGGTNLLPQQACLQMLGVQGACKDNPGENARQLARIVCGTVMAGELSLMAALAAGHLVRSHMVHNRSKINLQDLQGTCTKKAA
The assay is described as follows: Inhibitory activity towards 3-hydroxy-3-methylglutaryl coenzyme A reductase (method of Shefer et al.). The assay is classed as biochemical. The text has this: EXAMPLE XVII-DETERMINATION OF THE INHIBITORY ACTIVITY OF THE COMPOUNDS TOWARDS 3-HYDROXY-3-METHYLGLUTARYL COENZYME A REDUCTASE
The method used is the one described by Shefer et al. (J. Lipid Res. 1972, 13, 402); cf. also Stokker (J. Med. Chem. 1985, 28, 357).

The subject of a further assay is cholesterol synthesis. The conditions noted are these: cited from earlier work.
The mark [4] stands for this setting: oral 150 mg/kg, listed as Ex. I.
[5] abbreviates: per os 100 mg/kg, listed as Ex. I.
Where [6] appears, read: oral 150 mg/kg, listed as Ex. IV.
Setting [7] is: per os 100 mg/kg, listed as Ex. IV.
The mark [8] stands for this setting: oral 150 mg/kg, listed as Ex. III.
Setting [9] is: per os 100 mg/kg, listed as Ex. III.

Where a name gives a salt, the structure may show the parent alone.

In the case of `CC1CC(OC(=O)[C@@H]2CCC(=O)N2)CC(C)(C)C1` (single isomer, unassigned) [Example I, 3,3,5-Trimethylcyclohexyl L-pyroglutamate], the Cholesterol level in assay [1] (oral 50 mg/kg) turned out to be 2.80 g/L; in assay [1] (setting [4]), 1.95 g/L; in assay [2] (per os 25 mg/kg) it was 1.73 g/L; in assay [2] (setting [5]), 1.50 g/L. Also, the Triglyceride level in assay [1] (oral 50 mg/kg) is 1.46 g/L; in assay [1] (setting [4]) it was 0.93 g/L; in assay [2] (per os 25 mg/kg) it was 1.39 g/L; in assay [2] (setting [5]) it was 0.80 g/L. Further, half-maximal inhibition in assay [3] (IC50) was put at 100 nM.
In assay [1] (setting [6]), `CC1CC(OC(=O)[C@@H]2CCC(=O)N2)CC(C)(C)C1` (single isomer, unassigned) [Example IV, 3,3,5-TRIMETHYLCYCLOHEXYL PYROGLUTAMATE] gave a Cholesterol level of 2.15 g/L and a Triglyceride level of 0.85 g/L. For the same molecule, in assay [2] (setting [7]), the Cholesterol level came to 1.47 g/L and the Triglyceride level turned out to be 0.80 g/L. Also, in assay [3], the IC50 (usually the concentration needed to halve the response being measured) was 150 nM.
For the molecule `CN(C)CCCN(C)[C@H]1CC[C@H]2[C@@H]3CC=C4C[C@@H](O)CC[C@]4(C)[C@H]3CC[C@]12C` [20, 25-Diazacholesterol], in the assay with cholesterol synthesis, the inhibits cholesterol synthesis entry is on record as “inhibits cholesterol synthesis”.
As to `CC1CC(OC(=O)[C@@H]2CCC(=O)N2)CC(C)(C)C1` (some centres unmarked) [Example III, 3,3,5-trimethylcyclohexyl pyroglutamate], in assay [1] (setting [8]), the Cholesterol level came to 2.00 g/L and the Triglyceride level was determined as 1.10 g/L. Besides, in assay [2] (setting [9]), the Cholesterol level was 1.47 g/L and the Triglyceride level is 1.01 g/L.
For the molecule `CC1CC(C)CC(OC(=O)[C@@H]2CCC(=O)N2)C1` (stereo partly drawn) [Example IX, L-Pyroglutamate of 3,5-dimethylcyclohexanol], in assay [1] (oral 150 mg/kg), the Cholesterol level was determined as 2.10 g/L and the Triglyceride level turned out to be 1.30 g/L. Also, in assay [3], half-maximal inhibition (IC50) was put at 400 nM.
On to `CC1CC(OC(=O)[C@@H](N)CCC(N)=O)CC(C)(C)C1` (stereo partly drawn) [Example V, trans-3,3,5-trimethylcyclohexyl L-γ-amidoglutamate hydrochloride], for which, in assay [1] (oral 150 mg/kg), the Cholesterol level stood at 1.95 g/L and the Triglyceride level was 1.15 g/L. Moreover, in assay [2] (per os 100 mg/kg), the Cholesterol level was determined as 1.62 g/L and the Triglyceride level was determined as 0.92 g/L. This molecule also returned an IC50 in assay [3] of 80 nM.
Turning to `CC1CC(OC(=O)[C@@H](N)CCC(=O)O)CC(C)(C)C1` (stereo partly drawn) [Example VI, TRANS-3,3,5-TRIMETHYLCYCLOHEXYL L-α-GLUTAMATE HYDROCHLORIDE], in assay [1] (oral 150 mg/kg), the Cholesterol level was determined as 2.50 g/L and the Triglyceride level is 2.00 g/L. This molecule also gave an IC50 in assay [3] of 120 nM.
In the same order, the values of `CC(=O)N[C@@H](CC(=O)O)C(=O)OC1CC(C)CC(C)(C)C1` (stereo partly drawn) [Example VII, MAGNESIUM SALT OF 3,3,5-TRIMETHYLCYCLOHEXYL N-ACETYL-L-α-ASPARTATE] are 3.00 g/L, 2.70 g/L and 500 nM.
In assay [3], `O=C1CC[C@@H](C(=O)OC2CCCCC2)N1` [Example VIII, L-Pyroglutamate of cyclohexanol] gave a concentration for half-maximal inhibition (IC50) of 550 nM.
On the same count and under the same terms, the value for `CC1CCCC(C)C1OC(=O)[C@@H]1CCC(=O)N1` (stereo partly drawn) [Example X, L-Pyroglutamate of 2,6-dimethylcyclohexanol] was 400 nM.
`CC1=CC(OC(=O)[C@@H]2CCC(=O)N2)CC(C)(C)C1` (stereo partly drawn) [Example XI, L-Pyroglutamate of 3,5,5-trimethylcyclohex-2-en-1-ol]: in assay [1] (oral 150 mg/kg), the Cholesterol level amounted to 2.00 g/L and the Triglyceride level amounted to 1.92 g/L. In assay [3], this molecule returned an IC50 of 130 nM.
In assay [3], `CC1(OC(=O)[C@@H]2CCC(=O)N2)CCCC1` [Example XII, L-Pyroglutamate of 1-methylcyclopentanol] registered a concentration for half-maximal inhibition (IC50) of 600 nM.
In assay [1] (oral 150 mg/kg), `CC1=CCC(OC(=O)[C@@H]2CCC(=O)N2)(C(C)C)CC1` (stereo partly drawn) [Example XIII, L-Pyroglutamate of terpin-4-enol] came in with a Cholesterol level of 1.90 g/L and a Triglyceride level of 1.20 g/L. In assay [3], the midpoint of inhibition, the IC50, lay at 210 nM.
In the same order, the values of `CC1=CCC(C(C)(C)OC(=O)[C@@H]2CCC(=O)N2)CC1` (stereo partly drawn) [Example XIV, L-Pyroglutamate of terpineol] are 2.12 g/L, 1.10 g/L and 300 nM.
In assay [1] (oral 500 mg/kg), `O=C(O)c1cccnc1` [nicotinic acid, reference compound] yielded a Cholesterol level of 5.00 g/L and a Triglyceride level of 1.41 g/L.

Source of the values: patent US5236946A, “Amino acid esters of cycloaliphatic alcohols and their use in treating lipemic disorders” (Panmedica S.A., priority 1986, dated 1993).
